Measured values taken from article PMC9981747, “A covalent BTK ternary complex compatible with targeted protein degradation” (Nature Communications, 2023).
Several values for one entry are separate records, joined by “and”; a condition that tells them apart may be missing. Identical values can stand only once.

Legend:
Type in all cases: cell-based
BTK^FL-C481S [1] = target: T1, BTK^FL-C481S (Homo sapiens, UniProt Q06187+Q13490, C481S); assay: Expi293 dose-dependent BTK degradation (western blot), BTK^FL-C481S co-transfected with cIAP1^FL; settings: for C481S BTK blot signal normalized to DMSO: replicates; for DC50: Expi293, cIAP1^FL co-transfected, ~18 h, 3 experiments
T1 construct: we used a full-length BTK (aa1-659) with a C terminal Tobacco Etch Virus protease (TEV) site; expressed in transfected cells; host or cells: Expi293 (HEK293)
Procedure: (§1) Gibco Expi293 cell line Transfection Kit (Cat.# A14524) was cultured according to the manufacturers conditions. Cells were grown at 37 °C with 5% CO2 to 4 × 10^6 cells/mL using an orbital shaker set to 95 RPM. Next cells were split to 2 × 10^6 cells/mL and transfected with plasmid DNA at a 1 µg/mL final concentration in Optimem (Gibco 31985070) using the Expifectamine 293 transfection reagent according to manufacturer’s conditions. After approximately 18 h, enhancers 1 and 2 (provided with kit). Viability was typically about 85%. When cIAP1^FL was transfected, it was detected via α-cIAP1 antibody there was typically some autoubiquitination detected, and thus often appeared as a laddered or smeared band via western blotting. When BTK^FL variants were transfected, they were detected using anti-BTK antibody (D3H5).
For dose-dependent degradation assays, cells were plated in a 24-well format and placed on a separate orbital shaker set to 115 RPM. Each well was treated with prescribed compound concentrations in the same manner as with THP-1 cells, with the exception of using Expifectamine 293 growth medium in place of RPMI 1640 complete media. After approximately 18 h post-treatment cells were harvested, centrifuged at 100 x g at 4 °C, washed twice with ice-cold PBS, and resuspended in RIPA buffer supplemented with a Roche protease inhibitor cocktail (Cat. #11873580001), and benzonase nuclease (Millipore-Sigma Cat# 70664). Each sample was incubated on ice for 30 min with periodic vortexing and centrifuged at 15 Kxg for 20 min. Clarified lysate was harvested and quantified using a Pierce BCA Assay Kit (Cat. #23225), and 20 µg of the sample was loaded into a 4–15% Criterion TGX gel (Bio-Rad, 5678085) and transferred to a nitrocellulose membrane (Life Technologies Cat. #IB23001) using an iBlot 2 (Life Technologies Cat. #IB21001). Proteins were detected using an iBind system (Life Technologies SLF2020). For BTK^T474I and BTK^T474I/C481S we inferred ligand entry into cells via the autoubiquitination and dose-dependent degradation of cIAP1^FL,[58].
(§2) Dose-dependent Degradation was analyzed using ImageJ (NIH, version 1.50i). Densiometric analysis was performed, normalized to DMSO signal, and analyzed using GraphPad Prism (Version 9.0.0 (121)). Non-linear fit one-phase decay analysis was used to obtain DC50 values. When we observed a hook effect, some points were excluded as part of the fit. In Supplementary Fig. 7B the complete curve was fit using GraphPad Prism non-linear regression bell-shaped curve where X is the concentration. However, using this method we were unable to obtain stable values for our DC50. SEM error was plotted for each point. When determining statistically significant differences, we used a two-sided student’s unpaired T-Test.

BTK = target: T2, BTK (Homo sapiens, UniProt Q06187+Q13490); assay: THP-1 dose-dependent degradation of endogenous BTK; settings: replicates
T2 construct: a THP-1 cell line which natively expresses both BTK and cIAP1; host or cells: THP-1
Procedure: Human monocytic leukemia THP-1 Cells (ATCC TIB202) were grown in RPMI 1640 complete media (Gibco Cat# 11875-093), 10% Heat Inactivated FBS (Gibco Cat# 10438026), 2 mM L-Glutamine (Gibco Cat# 25030-081), 10 mM HEPES (Lonza Cat# 17-737E). Cells were cultured to approximately 0.8 × 10^6 cells/mL, centrifuged at 100 x g at 4 °C for 5 min, and resuspended in growth medium at 1.25 × 10^6 cells/mL, and 750 µL were plated in a 24-well format. Compounds were serially diluted in DMSO and individually added to pre-warmed complete media at a 4x concentration. Subsequently, 250 µL was added to their respective well, making it a 1x concentration. Endpoint viability was ≥95%. Each experiment was performed with n = 3 independent experiments. Three datapoints are missing due to blot.
as §2

BTK^FL-C481S [2] = target: T1, BTK^FL-C481S; assay: Expi293 time-dependent degradation of BTK^FL-C481S; settings: 5 µM; for BTK^FL-C481S blot signal normalized to time 0: replicates
Procedure: as §1
For covalent modification detection assays, the compound was added to Expi293 cells after enhancer treatment. At each timepoint 10 mL of cells were harvested, rapidly cooled to 4 °C in an ice bath, and centrifuged at 100 x g at 4 °C for 5 min. The pellet was washed twice with ice-cold PBS, snap-frozen in liquid nitrogen, and stored at −80 °C. Each pellet was resuspended in 0.1 mL ice-cold RIPA Buffer supplemented with 40 µM BCNC (to outcompete any remaining BCCov), protease inhibitor, and benzonase, and sonicated with 10 brief blasts at power 20. Lysate was centrifuged at 15 K x g for 20 min at 4 °C and prepared for western blotting as detailed above. When samples were evaluated for covalent adduct formation, a purification step was required. Briefly, the ~1 mL of clarified lysate was added to 9 mL of FLAG binding buffer (25 mM HEPES 7.5, 300 mM NaCl, 10% glycerol). These samples were incubated with 250 µL of anti-FLAG M2 affinity resin (Millipore-Sigma Cat. # A2220) for 3 h at 4 °C with gentle nutation. Samples were washed via gravity column filtration and eluted with 0.2 mg/ml FLAG Peptide (DYKDDDDK, CPC Scientific Peptide Company). Each sample was concentrated to 0.1 mg/mL using an Amicon Ultra-15 Centrifugal filter with a 50 kDa MWCO (Millipore-Sigma Cat. # UFC905024). Details on mass spectrometry analysis are below.

T2 sequence (Q06187 whole entry): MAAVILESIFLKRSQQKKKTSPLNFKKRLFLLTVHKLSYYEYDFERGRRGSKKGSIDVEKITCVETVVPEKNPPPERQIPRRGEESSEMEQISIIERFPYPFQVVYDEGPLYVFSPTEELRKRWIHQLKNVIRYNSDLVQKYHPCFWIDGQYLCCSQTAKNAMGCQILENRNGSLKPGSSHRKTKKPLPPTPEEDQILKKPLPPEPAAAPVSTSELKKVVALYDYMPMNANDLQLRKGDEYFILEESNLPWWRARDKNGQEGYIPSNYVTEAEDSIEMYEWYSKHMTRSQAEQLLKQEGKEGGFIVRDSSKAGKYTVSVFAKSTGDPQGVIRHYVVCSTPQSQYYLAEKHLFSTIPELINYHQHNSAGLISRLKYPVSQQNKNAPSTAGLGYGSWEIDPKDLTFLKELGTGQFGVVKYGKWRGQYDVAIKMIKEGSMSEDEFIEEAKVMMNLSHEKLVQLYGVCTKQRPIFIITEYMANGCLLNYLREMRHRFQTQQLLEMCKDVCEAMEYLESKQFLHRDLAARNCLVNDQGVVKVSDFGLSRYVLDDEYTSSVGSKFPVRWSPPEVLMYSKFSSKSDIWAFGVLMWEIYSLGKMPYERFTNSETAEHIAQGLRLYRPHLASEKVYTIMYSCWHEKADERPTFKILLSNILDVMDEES
T2 sequence (Q13490 whole entry): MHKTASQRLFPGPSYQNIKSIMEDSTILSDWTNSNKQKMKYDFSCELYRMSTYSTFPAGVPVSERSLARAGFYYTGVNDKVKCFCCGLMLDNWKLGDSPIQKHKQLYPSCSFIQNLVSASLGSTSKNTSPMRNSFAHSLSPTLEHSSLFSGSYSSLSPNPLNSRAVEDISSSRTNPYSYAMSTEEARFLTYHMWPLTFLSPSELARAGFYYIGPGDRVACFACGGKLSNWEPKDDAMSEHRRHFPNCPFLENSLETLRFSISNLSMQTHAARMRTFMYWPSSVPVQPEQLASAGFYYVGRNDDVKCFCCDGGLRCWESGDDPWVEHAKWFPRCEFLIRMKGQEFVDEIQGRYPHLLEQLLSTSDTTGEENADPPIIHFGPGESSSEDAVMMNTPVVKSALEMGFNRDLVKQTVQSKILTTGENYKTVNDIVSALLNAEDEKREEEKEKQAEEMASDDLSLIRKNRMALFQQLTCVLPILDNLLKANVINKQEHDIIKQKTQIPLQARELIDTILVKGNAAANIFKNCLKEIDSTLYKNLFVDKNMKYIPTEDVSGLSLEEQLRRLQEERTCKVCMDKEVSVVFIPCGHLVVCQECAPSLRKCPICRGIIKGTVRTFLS
T1 sequence (Q06187 whole entry C481S, the tested form may be a part): as the sequence (Q06187 whole entry) above, with C481S counted along it
T1 sequence (Q13490 whole entry, the tested form may be a part): as the sequence (Q13490 whole entry) above

## CNC(C)C(=O)NC(C(=O)N1CC(NC(=O)COCCN2CCN(CC=CC(=O)N3CCCC(n4nc(-c5ccc(Oc6ccccc6)cc5)c5c(N)ncnc54)C3)CC2)CC1C(=O)NC1CCCc2ccccc21)C1CCCCC1 (stereo not shown) [BCCov]
BTK^FL-C481S [1]; 0.004883 uM
  C481S BTK blot signal normalized to DMSO: 0.87 and 0.90 and 0.91
BTK^FL-C481S [1]; 0.009766 uM
  C481S BTK blot signal normalized to DMSO: 0.89 and 0.76 and 0.79
BTK^FL-C481S [1]; 0.019531 uM
  C481S BTK blot signal normalized to DMSO: 0.87 and 0.66 and 0.82
BTK^FL-C481S [1]; 0.039063 uM
  C481S BTK blot signal normalized to DMSO: 0.76 and 0.72 and 0.87
BTK^FL-C481S [1]; 0.078125 uM
  C481S BTK blot signal normalized to DMSO: 0.63 and 0.53 and 0.56
BTK^FL-C481S [1]; 0.15625 uM
  C481S BTK blot signal normalized to DMSO: 0.51 and 0.41 and 0.42
BTK^FL-C481S [1]; 0.3125 uM
  C481S BTK blot signal normalized to DMSO: 0.35 and 0.41 and 0.28
BTK^FL-C481S [1]; 0.625 uM
  C481S BTK blot signal normalized to DMSO: 0.26 and 0.34 and 0.16
BTK^FL-C481S [1]; 1.25 uM
  C481S BTK blot signal normalized to DMSO: 0.27 and 0.20 and 0.13
BTK^FL-C481S [1]; 2.5 uM
  C481S BTK blot signal normalized to DMSO: 0.21 and 0.11 and 0.057
BTK^FL-C481S [1]; 5 uM
  C481S BTK blot signal normalized to DMSO: 0.21 and 0.09 and 0.0641
BTK^FL-C481S [1]
  DC50: 122 ± 44 nM
BTK; THP-1, 0.00488 uM
  endogenous BTK blot signal normalized to DMSO: 1.05 and 0.90 and 1.04
BTK; THP-1, 0.01 uM
  endogenous BTK blot signal normalized to DMSO: 1.07 and 1.23 and 0.79
BTK; THP-1, 0.02 uM
  endogenous BTK blot signal normalized to DMSO: 0.87 and 1.16 and 0.59
BTK; THP-1, 0.04 uM
  endogenous BTK blot signal normalized to DMSO: 0.60 and 1.52 and 0.48
BTK; THP-1, 0.08 uM
  endogenous BTK blot signal normalized to DMSO: 0.50 and 0.87 and 0.33
BTK; THP-1, 0.16 uM
  endogenous BTK blot signal normalized to DMSO: 0.45 and 0.72 and 0.21
BTK; THP-1, 0.31 uM
  endogenous BTK blot signal normalized to DMSO: 0.22 and 0.32 and 0.13
BTK; THP-1, 0.63 uM
  endogenous BTK blot signal normalized to DMSO: 0.18 and 0.24 and 0.08
BTK; THP-1, 1.25 uM
  endogenous BTK blot signal normalized to DMSO: 0.13 and 0.23 and 0.0336
BTK; THP-1, 2.50 uM
  endogenous BTK blot signal normalized to DMSO: 0.11 and 0.00 and 0.00241
BTK; THP-1, 5.00 uM
  endogenous BTK blot signal normalized to DMSO: 0.056 and 0.00 (2×)
BTK^FL-C481S [2]
  rate of BTK^FL-C481S degradation compared with BTK^FL: slower rate
BTK^FL-C481S [2]; 0.5 h
  BTK^FL-C481S blot signal normalized to time 0: 0.75 and 0.78 and 0.82
BTK^FL-C481S [2]; 1 h
  BTK^FL-C481S blot signal normalized to time 0: 0.77 and 0.74 and 0.81
BTK^FL-C481S [2]; 2 h
  BTK^FL-C481S blot signal normalized to time 0: 0.71 and 0.76 and 0.72
BTK^FL-C481S [2]; 3.5 h
  BTK^FL-C481S blot signal normalized to time 0: 0.60 and 0.65 and 0.66
BTK^FL-C481S [2]; 5.5 h
  BTK^FL-C481S blot signal normalized to time 0: 0.58 and 0.55 and 0.61
BTK^FL-C481S [2]; 7 h
  BTK^FL-C481S blot signal normalized to time 0: 0.41 and 0.48 and 0.42
BTK^FL-C481S [2]; 17 h
  BTK^FL-C481S blot signal normalized to time 0: 0.07 (2×) and 0.02

## CNC(C)C(=O)NC(C(=O)N1CC(NC(=O)COCCN2CCN(CCCC(=O)N3CCCC(n4nc(-c5ccc(Oc6ccccc6)cc5)c5c(N)ncnc54)C3)CC2)CC1C(=O)NC1CCCc2ccccc21)C1CCCCC1 (stereo not shown) [BCNC]
BTK^FL-C481S [1]; 0.004883 uM
  C481S BTK blot signal normalized to DMSO: 0.87 and 1.00 (2×)
BTK^FL-C481S [1]; 0.009766 uM
  C481S BTK blot signal normalized to DMSO: 0.89 and 0.76 and 0.79
BTK^FL-C481S [1]; 0.019531 uM
  C481S BTK blot signal normalized to DMSO: 0.87 and 0.66 and 0.82
BTK^FL-C481S [1]; 0.039063 uM
  C481S BTK blot signal normalized to DMSO: 0.76 and 0.72 and 0.87
BTK^FL-C481S [1]; 0.078125 uM
  C481S BTK blot signal normalized to DMSO: 0.63 and 0.53 and 0.56
BTK^FL-C481S [1]; 0.15625 uM
  C481S BTK blot signal normalized to DMSO: 0.51 and 0.41 and 0.42
BTK^FL-C481S [1]; 0.3125 uM
  C481S BTK blot signal normalized to DMSO: 0.35 and 0.41 and 0.28
BTK^FL-C481S [1]; 0.625 uM
  C481S BTK blot signal normalized to DMSO: 0.26 and 0.34 and 0.16
BTK^FL-C481S [1]; 1.25 uM
  C481S BTK blot signal normalized to DMSO: 0.27 and 0.20 and 0.13
BTK^FL-C481S [1]; 2.5 uM
  C481S BTK blot signal normalized to DMSO: 0.21 and 0.11 and 0.057
BTK^FL-C481S [1]; 5 uM
  C481S BTK blot signal normalized to DMSO: 0.21 and 0.09 and 0.0641
BTK^FL-C481S [1]
  DC50: 145 ± 58 nM
BTK; THP-1, 0.00488 uM, listed as noncov
  endogenous BTK blot signal normalized to DMSO: 0.97 and 1.25 and 1.03
BTK; THP-1, 0.01 uM, listed as noncov
  endogenous BTK blot signal normalized to DMSO: 1.01 and 1.22 and 0.91
BTK; THP-1, 0.02 uM, listed as noncov
  endogenous BTK blot signal normalized to DMSO: 1.09 and 1.18 and 0.86
BTK; THP-1, 0.04 uM, listed as noncov
  endogenous BTK blot signal normalized to DMSO: 1.06 and 1.18 and 0.70
BTK; THP-1, 0.08 uM, listed as noncov
  endogenous BTK blot signal normalized to DMSO: 0.36 and 0.68 and 0.42
BTK; THP-1, 0.16 uM, listed as noncov
  endogenous BTK blot signal normalized to DMSO: 0.23 and 0.28 (2×)
BTK; THP-1, 0.31 uM, listed as noncov
  endogenous BTK blot signal normalized to DMSO: 0.17 and 0.09 and 0.13
BTK; THP-1, 0.63 uM
  endogenous BTK blot signal normalized to DMSO: 0.00
BTK; THP-1, 1.25 uM
  endogenous BTK blot signal normalized to DMSO: 0.00
BTK; THP-1, 2.50 uM
  endogenous BTK blot signal normalized to DMSO: 0.00
BTK; THP-1, 5.00 uM
  endogenous BTK blot signal normalized to DMSO: 0.00
BTK^FL-C481S [2]; 0.5 h
  BTK^FL-C481S blot signal normalized to time 0: 0.79 and 0.85 and 0.76
BTK^FL-C481S [2]; 1 h
  BTK^FL-C481S blot signal normalized to time 0: 0.74 and 0.81 and 0.78
BTK^FL-C481S [2]; 2 h
  BTK^FL-C481S blot signal normalized to time 0: 0.68 and 0.72 and 0.69
BTK^FL-C481S [2]; 3.5 h
  BTK^FL-C481S blot signal normalized to time 0: 0.53 and 0.64 and 0.52
BTK^FL-C481S [2]; 5.5 h
  BTK^FL-C481S blot signal normalized to time 0: 0.35 and 0.44 and 0.38
BTK^FL-C481S [2]; 7 h
  BTK^FL-C481S blot signal normalized to time 0: 0.35 and 0.32 and 0.33
BTK^FL-C481S [2]; 17 h
  BTK^FL-C481S blot signal normalized to time 0: 0.00 and 0.04 (2×)
